“Also recorded” adds a separate entry of the source.

These results are taken from patent publication US10682388B2, “Targeting of PELP1 in cancer therapy” (THE BOARD OF REGENTS OF THE UNIVERSITY OF TEXAS SYSTEM, priority 2014, dated 2020).

Experiment [1] concerns ZRPELP1 cells. Put plainly: Initial screen, proliferation assay of PELP1-overexpressing breast cancer cells. It is filed as cell-based, Human. Conditions: peptide every 3 days, absorbance at 7 days, FIG. 1B. The procedure: FIGS. 1A-D. (FIG. 1A) Diagram for yeast two hybrid screen to identify PELP1 binding peptides. Four regions of PELP1 were tagged with the binding domain and a library of 10^6 random peptides (Clontech) were bound to an activation domain. The number of positive colonies per region of PELP1 are shown in the graph. (FIG. 1B) A proliferation assay was performed with […]1 cells plated in a 96 well plate, treated with peptide every 3 days and absorbance was measured at 7 days. (FIG. 1C) ZR75 were plated in a 6-well plate on coverslips in 8% RPMI and treated with 10 uM FITC labeled peptide for 30, 60, or 120 minutes. They were then fixed with pararformaldehyde, stained for PELP1 (red) and DAPI (blue), and imaged by confocal microscopy to monitor intracellular delivery. (FIG. 1D) ZR75 cells were starved of estrogen for 72 hours and treated with estradiol 10^-7 M for 12 hours. Nuclear lysate was incubated with biotin-tagged peptides bound to avidin beads for one hour. Beads were washed, run on SDS-PAGE gel and probed for PELP1 expression. Input of nuclear lysate is shown as control. Cell proliferation rates were measured by using MTT Cell Viability Assay in 96-well plates. Model cells were seeded in 96-well plates (1×10^3 cells/well) in DMEM or RPMI medium containing 10% serum. After an overnight incubation, cells were treated with varying concentrations of the peptides for 3-7 days and growth inhibition was determined by using traditional MTT assay (Sigma) following manufacturer's instructions.

For experiment [2], the target named is T1, PELP1-G9a complex (Homo sapiens, UniProt Q8IZL8).
T1 construct: purified bacterial, full-length PELP1; host or cells: bacteria (PELP1)
The experiment can be described thus: In vitro peptide competition assay, G9a-GST on glutathione beads with purified PELP1. Conditions: peptides 2, 5, 10 μM, 2 hours, FIGS. 2C, 7B, 9. It counts as binding. The procedure:
FIGS. 2A-D. (FIG. 2A) Immunoprecipitation was performed on nuclear lysates obtained from ZRPELP1 cells grown in 5% DCC for 72 hours and treated with estradiol 10^−7 M for 12 hours. PELP1 was immunoprecipitated and western blotting was performed for PELP1 and G9a expression with IgG as the control. (FIG. 2B) Various fragments of PELP1 bound to glutathione beads were incubated with recombinant G9a for 2 hours. Beads were washed, run on an SDS-PAGE gel and immunoblotted for G9a expression. GST tag alone is shown as control. (FIG. 2C) Recombinant G9a-GST was bound to glutathione beads and incubated with purified PELP1 and peptides for 2 hours. Beads were washed and run on SDS-PAGE gel. (FIG. 2D) ZR75 cells were transfected with ERE-luciferase, PELP1 and/or G9a plasmids and treated with peptide for 24 hours and estradiol 10^−7 M for 12 hours. Relative luciferase activity is shown.
FIGS. 7A-E. (FIG. 7A) Bacterial purified PELP1 was incubated with biotin-tagged peptides bound to avidin beads for one hour. Beads were washed, run on SDS-PAGE gel and probed for PELP1 expression. Input of bacterial PELP1 is shown as control. (FIG. 7B) Recombinant G9a-GST was bound to glutathione beads and incubated with purified PELP1 and peptides for 2 hours. Beads were washed and run on SDS-PAGE gel. (+2 μM, ++5 μM, +++10 μM). (FIG. 7C) ZRGST and ZRPELP1GST cells were transfected in triplicate with TopFlash β-catenin reporter and treated with TAT or PIP1 (10 μM) for 24 hours. Relative luciferase activity is shown. (FIG. 7D) MCF7vec and MCF7PELP1 cells were treated with TAT or PIP1 (10 μM) and toxicity was measured by CytoTox-Flour Cytotoxicity Assay. (FIG. 7E) ZR75 and ZR75PELP1 cells were treated with TAT, PIP1 or PIP2 for 24 hours and immunoblotted for PELP1 and ERα expression with actin as the loading control.
FIG. 9. […]
Peptides were linked to EZ-Link NHS-Biotin (Thermo Scientific) per manutfacturer's protocol. […] Beads were washed 3× with IP buffer (20 mM HEPES pH 7.9, 20% glycerol, 0.1% triton-x, 100 mM KCl), eluted with SDS-dye, and PELP1 expression was determined by western blotting. […]

Experiment [3] concerns TNBC (MDA-MB-231 and MDA-MB-468) and ER-positive (ZR-75 and MCF-7) breast cancer cell lines. Put plainly: MTT proliferation assay of PIP3, TNBC and ER-positive breast cancer cell lines. It counts as cell-based. To be noted: 10 μM and dose response, FIGS. 13A-C. On the procedure:
FIGS. 13A-C. […] (FIG. 13A) Breast cancer cells were treated with vehicle or 10 μM PIP3 and proliferation was measured by using the MTT assay. (FIGS. 13B-C) Dose response curves for PIP3. Cell proliferation rates were measured by using MTT Cell Viability Assay in 96-well plates. Model cells were seeded in 96-well plates (1×10^3 cells/well) in DMEM or RPMI medium containing 10% serum. After an overnight incubation, cells were treated with varying concentrations of the peptides for 3-7 days and growth inhibition was determined by using traditional MTT assay (Sigma) following manufacturer's instructions.

Experiment [4] concerns T98G, LN229 and U251 glioma cells and patient-derived primary GBM cells. The experiment can be described thus: MTT proliferation assay, glioma cell lines and primary GBM cells. It is filed as cell-based. To be noted: FIGS. 15A-D. On the procedure: FIGS. 15A-D. PIPs inhibit proliferation of glioma cells. (FIGS. 15A-B) T98G, LN229 and U251 glioma cells were treated with vehicle or varying concentration of PIP1 or PIP3, and proliferation was measured by using the MTT assay. (FIGS. 15C-D) Patient-derived primary GBM cells were treated with PIP1 or PIP3 and proliferation was measured using the MTT assay. Cell proliferation rates were measured by using MTT Cell Viability Assay in 96-well plates. Model cells were seeded in 96-well plates (1×10^3 cells/well) in DMEM or RPMI medium containing 10% serum. After an overnight incubation, cells were treated with varying concentrations of the peptides for 3-7 days and growth inhibition was determined by using traditional MTT assay (Sigma) following manufacturer's instructions.
On the technique in general: Tetrazolium dyes change colour on reduction, which living cells bring about.

For experiment [5], the system named is MDA-MB-231 and MDA-MB-468. The experiment can be described thus: MTT proliferation assay, triple negative breast cancer cell lines. It counts as cell-based. Conditions: preliminary studies. On the procedure: FIGS. 8A-C. (FIG. 8A) ZR75PELP1KD cells were treated in triplicate with TAT or PIP1 (10, 20, or 50 μM) every 3 days and proliferation was measured by MTT assay on day 7. (FIG. 8B) MCF7PELP1KD cells were treated in triplicate with TAT or PIP1 (10, 20, or 50 μM) every 3 days and proliferation was measured by MTT assay on day 7. (FIG. 8C) MDAMB231 and MDAMB468 cells were treated in triplicate with TAT or PIP1 (10 μM) every 3 days and proliferation was measured by MTT assay on day 7. Cell proliferation rates were measured by using MTT Cell Viability Assay in 96-well plates. Model cells were seeded in 96-well plates (1×10^3 cells/well) in DMEM or RPMI medium containing 10% serum. After an overnight incubation, cells were treated with varying concentrations of the peptides for 3-7 days and growth inhibition was determined by using traditional MTT assay (Sigma) following manufacturer's instructions.

Experiment [6] relates to ERE-luciferase in ZRPELP1 cells. The experiment can be described thus: ERE-luciferase reporter gene assay in PELP1 overexpressing cells. It is filed as cell-based, Human. Conditions: peptide 24 hours, estradiol 12 hours, compared to control TAT, FIGS. 4B, 10. On the procedure: (§1) FIGS. 4A-E. (FIG. 4A) ZR75vec, ZR75PELP1, MCF7vec and MCF7PELP1 cells were treated in triplicate with TAT, PIP1 or PIP1 deletions (Del1, Del2, Del3) at 10 uM every 3 days and proliferation was measured by MTT assay on day 7. (FIG. 4B) ZRPELP1 cells were transfected with ERE-luciferase and treated with TAT, PIP1, or PIP2 for 24 hours and with estradiol for 12 hours. Relative luciferase activity was measured in triplicate. (FIG. 4C) ZR75 cells were grown in 5% DCC media for 72 hours, treated with TAT or PIP1 every 3 days, and treated with estradiol 10^−7 M for 12 hours. Proliferation was measured in triplicate on day 7 by MTT assay at 595 nm. (FIG. 4D) MCF7-Letrozole resistant cells were grown in 5% DCC media for 72 hours, treated with TAT, PIP1 or PIP2 every 3 days, and letrozole or estradiol 10^−7 M for 12 hours. Proliferation was measured in triplicate on day 7 by MTT assay at 595 nm. (FIG. 4E) MCF7-Tamoxiefn resistant cells were grown in 5% DCC media for 72 hours, treated with TAT, PIP1 or PIP2 every 3 days, and tamoxifen or estradiol 10^−7 M for 12 hours. Proliferation was measured in triplicate on day 7 by MTT assay at 595 nm.
FIG. 10. ERE-luciferase assay. […]
Model cells were seeded in 6-well plates. […] Luciferase activity was measured by using the luciferase assay system (Promega, Madison, Wis.).
Background: In a reporter assay the amount or activity of a reporter protein is the signal.

In experiment [7] the test system is MCF7-TamR and MCF7-LTLT cells. The experiment can be described thus: Therapy resistance assays, MTT. It counts as cell-based, Human. Conditions: MCF7-TamR and MCF7-LTLT, 10 μM, FIGS. 4D-E, 11. On the procedure:
as §1
FIG. 11. Cell proliferation assay: letrozole-resistant MCF-7-LTLT cells and Tamoxifen resistant MCF7-Tam cells were treated with TAT, PIP1, or PIP2 (10 μM)+/− letrozole or Tamoxifen.
Tamoxifen (Tam) therapy resistant MCF7-TamR and letrozole resistant MCF7-LTLT cells were cultured in tamoxifen or letrozole (10^-7M) containing media in the presence or absence of peptides and proliferation was measured by MTT assay (Sigma) following manufacturer's instructions.

T1 sequence (Q8IZL8 2-1130, one chain of several): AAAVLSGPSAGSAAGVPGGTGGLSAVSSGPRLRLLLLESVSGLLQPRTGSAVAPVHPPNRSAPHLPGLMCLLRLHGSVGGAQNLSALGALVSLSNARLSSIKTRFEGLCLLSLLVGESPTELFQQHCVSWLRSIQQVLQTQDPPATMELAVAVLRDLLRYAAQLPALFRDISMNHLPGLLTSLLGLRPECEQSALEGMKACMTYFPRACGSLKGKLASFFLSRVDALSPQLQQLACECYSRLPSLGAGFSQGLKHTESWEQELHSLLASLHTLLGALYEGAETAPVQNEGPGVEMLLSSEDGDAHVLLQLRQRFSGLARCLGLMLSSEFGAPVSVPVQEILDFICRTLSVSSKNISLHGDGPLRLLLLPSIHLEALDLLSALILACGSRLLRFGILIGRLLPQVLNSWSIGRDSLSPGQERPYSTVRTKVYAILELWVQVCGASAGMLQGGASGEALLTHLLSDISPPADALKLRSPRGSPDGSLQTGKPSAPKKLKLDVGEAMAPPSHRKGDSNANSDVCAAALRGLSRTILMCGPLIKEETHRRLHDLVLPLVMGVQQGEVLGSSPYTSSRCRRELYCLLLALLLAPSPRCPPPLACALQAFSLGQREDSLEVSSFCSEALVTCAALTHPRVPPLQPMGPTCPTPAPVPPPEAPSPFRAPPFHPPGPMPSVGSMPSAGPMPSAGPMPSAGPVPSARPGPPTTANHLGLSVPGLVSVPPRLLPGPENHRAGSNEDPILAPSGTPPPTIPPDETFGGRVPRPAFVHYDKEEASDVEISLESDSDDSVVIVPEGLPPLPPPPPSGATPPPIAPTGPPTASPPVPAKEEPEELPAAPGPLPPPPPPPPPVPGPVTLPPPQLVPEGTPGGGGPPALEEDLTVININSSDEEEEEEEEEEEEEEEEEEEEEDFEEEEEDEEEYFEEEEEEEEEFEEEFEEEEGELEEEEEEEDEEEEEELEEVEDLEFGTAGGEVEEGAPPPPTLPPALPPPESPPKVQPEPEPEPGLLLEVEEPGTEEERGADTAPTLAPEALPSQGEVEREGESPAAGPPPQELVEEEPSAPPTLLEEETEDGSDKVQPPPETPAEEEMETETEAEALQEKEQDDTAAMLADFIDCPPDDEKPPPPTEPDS

For GRKKRRQRRRGG [TAT, reference compound], the “PELP1-mediated breast cancer cell proliferation” value in experiment [1] was “no significant effect”. In addition, the “disruption of PELP1 interaction with G9a/EHMT2” value in experiment [2] is listed as “no effect”.
Regarding GRKKRRQRRRGGFKEWWRIDMVWLHRVRRNSY [PIP3], the “growth of TNBC and ER-positive breast cancer cell lines” value in experiment [3] was “inhibited growth; also recorded: inhibits proliferation of breast cancer cells”. Also, the “concentration of potent activity on glioma proliferation” value in experiment [4] was 5 to 10 µM. The “proliferation of glioma cell lines and primary GBM cells” value in experiment [4] (varying concentration) was “significantly reduced their proliferation in a dose-dependent manner”. Besides, the “activity on TNBC cells” value in experiment [5] is on record as “has activity in triple negative cells”.
On to GRKKRRQRRRGGIMGRGLCMRGVVRGRGRN [PIP2], for which the “PELP1-mediated breast cancer cell proliferation” value in experiment [1] is on record as “significantly inhibit PELP1-mediated proliferation”. Also, the “ERE activation (ERE-luciferase)” value in experiment [6] is on record as “significantly decreased ERE activation”. Moreover, in experiment [2], the “disruption of PELP1 interaction with G9a/EHMT2” value was “disrupted by the addition of either of the two peptides in a dose-dependent manner”. In addition, the “proliferation of therapy resistant cell lines” value in experiment [7] is given as “inhibited the proliferation; also recorded: efficiently reduce the growth of therapy resistant cells”.
